In ChEMBL document CHEMBL2203135, “Novel progesterone receptor modulators: 4-aryl-phenylsulfonamides” (Bioorg Med Chem Lett, 2012):
pIC50: −log10 of the molar value. Active and inactive are the calls of the source. The rule behind the calls is not given here.

Assays:
Type in all cases: functional
[1] = biological target: T1, Androgen receptor (Homo sapiens, UniProt P10275); assay: Antagonist activity at androgen receptor by cellular reporter gene assay
T1 sequence (P10275 whole entry): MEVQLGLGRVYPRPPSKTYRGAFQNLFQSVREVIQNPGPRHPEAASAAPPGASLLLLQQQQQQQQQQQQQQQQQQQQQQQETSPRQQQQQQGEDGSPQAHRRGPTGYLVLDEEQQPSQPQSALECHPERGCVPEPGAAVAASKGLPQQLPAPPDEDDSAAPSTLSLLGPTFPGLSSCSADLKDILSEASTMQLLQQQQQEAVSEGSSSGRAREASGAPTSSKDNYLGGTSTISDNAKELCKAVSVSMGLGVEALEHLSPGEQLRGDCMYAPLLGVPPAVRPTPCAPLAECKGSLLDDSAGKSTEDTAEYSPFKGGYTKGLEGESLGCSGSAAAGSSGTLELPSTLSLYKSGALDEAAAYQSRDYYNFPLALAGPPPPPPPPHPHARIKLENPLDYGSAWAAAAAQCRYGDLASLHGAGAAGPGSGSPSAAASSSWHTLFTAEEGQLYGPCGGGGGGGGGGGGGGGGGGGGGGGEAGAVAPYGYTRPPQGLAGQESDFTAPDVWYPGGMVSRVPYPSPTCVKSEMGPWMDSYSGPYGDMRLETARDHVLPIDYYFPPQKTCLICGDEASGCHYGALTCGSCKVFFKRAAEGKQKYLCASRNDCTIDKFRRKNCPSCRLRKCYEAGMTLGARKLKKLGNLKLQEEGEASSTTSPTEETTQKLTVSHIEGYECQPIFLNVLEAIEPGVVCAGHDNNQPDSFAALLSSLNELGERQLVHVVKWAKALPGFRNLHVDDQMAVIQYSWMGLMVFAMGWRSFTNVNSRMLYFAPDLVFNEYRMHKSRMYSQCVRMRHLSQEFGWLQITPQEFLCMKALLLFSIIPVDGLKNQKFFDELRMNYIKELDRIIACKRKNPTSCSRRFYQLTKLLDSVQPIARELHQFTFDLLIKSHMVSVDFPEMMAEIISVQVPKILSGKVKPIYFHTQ

[2] = biological target: T2, Estrogen receptor (Homo sapiens) (UniProt P03372); assay: Agonist activity at estrogen receptor by cellular reporter gene assay
T2 sequence (whole entry): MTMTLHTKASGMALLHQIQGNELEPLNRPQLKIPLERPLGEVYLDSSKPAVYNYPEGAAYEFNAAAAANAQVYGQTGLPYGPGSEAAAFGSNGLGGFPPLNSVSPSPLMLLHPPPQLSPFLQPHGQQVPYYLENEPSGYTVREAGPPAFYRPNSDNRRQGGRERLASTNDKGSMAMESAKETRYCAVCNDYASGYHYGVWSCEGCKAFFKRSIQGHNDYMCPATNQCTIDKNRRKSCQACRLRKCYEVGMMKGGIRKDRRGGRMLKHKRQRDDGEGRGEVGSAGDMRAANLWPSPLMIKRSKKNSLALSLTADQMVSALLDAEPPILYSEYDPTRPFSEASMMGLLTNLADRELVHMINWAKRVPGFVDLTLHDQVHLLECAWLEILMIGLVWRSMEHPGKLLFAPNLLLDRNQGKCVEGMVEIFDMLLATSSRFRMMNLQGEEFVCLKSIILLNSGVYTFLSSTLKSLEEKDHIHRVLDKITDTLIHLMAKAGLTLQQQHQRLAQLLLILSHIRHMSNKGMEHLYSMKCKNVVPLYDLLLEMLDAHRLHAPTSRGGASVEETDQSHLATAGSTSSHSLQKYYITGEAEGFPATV

[3] = biological target: T3, Mineralocorticoid receptor (Homo sapiens) (UniProt P08235); assay: Agonist activity at mineralocorticoid receptor by cellular reporter gene assay
T3 sequence (whole entry): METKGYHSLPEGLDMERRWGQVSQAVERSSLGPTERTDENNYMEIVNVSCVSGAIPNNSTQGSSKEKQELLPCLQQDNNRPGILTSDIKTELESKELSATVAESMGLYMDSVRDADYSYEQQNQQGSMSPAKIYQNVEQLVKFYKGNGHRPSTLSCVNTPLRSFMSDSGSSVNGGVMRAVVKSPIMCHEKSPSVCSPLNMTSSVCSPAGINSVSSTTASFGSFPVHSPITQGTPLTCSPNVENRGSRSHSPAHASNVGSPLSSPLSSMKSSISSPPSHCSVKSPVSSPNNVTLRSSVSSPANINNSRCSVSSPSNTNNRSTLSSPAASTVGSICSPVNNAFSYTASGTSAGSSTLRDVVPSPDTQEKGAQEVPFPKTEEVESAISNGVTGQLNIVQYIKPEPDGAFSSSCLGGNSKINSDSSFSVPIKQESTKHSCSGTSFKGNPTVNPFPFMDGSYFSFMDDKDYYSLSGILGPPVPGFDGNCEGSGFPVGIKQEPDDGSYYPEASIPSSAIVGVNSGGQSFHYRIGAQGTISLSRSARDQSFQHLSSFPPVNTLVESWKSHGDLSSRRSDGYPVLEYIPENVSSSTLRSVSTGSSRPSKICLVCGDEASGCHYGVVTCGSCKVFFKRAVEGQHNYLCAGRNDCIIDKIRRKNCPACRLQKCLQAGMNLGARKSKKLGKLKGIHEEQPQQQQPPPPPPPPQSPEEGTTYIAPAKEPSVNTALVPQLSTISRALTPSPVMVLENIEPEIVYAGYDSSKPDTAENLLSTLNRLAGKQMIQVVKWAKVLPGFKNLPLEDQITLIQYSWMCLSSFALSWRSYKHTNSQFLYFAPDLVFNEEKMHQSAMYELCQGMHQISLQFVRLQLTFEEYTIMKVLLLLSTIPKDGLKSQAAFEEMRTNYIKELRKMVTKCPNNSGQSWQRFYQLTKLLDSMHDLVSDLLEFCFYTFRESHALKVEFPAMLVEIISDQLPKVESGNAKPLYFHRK

pIC50 [1] | Activity [2] | Activity [3] | SMILES
8.05 | inactive | inactive | COC[C@]1(OC)CC[C@H]2[C@@H]3CCC4=CC(=O)CCC4=C3[C@@H](c3ccc(/C=N/O)cc3)C[C@@]21C [ASOPRISNIL]
7.00 | inactive | inactive | CCS(=O)(=O)Nc1cc(F)c(-c2ccc(C#N)n2C)c(F)c1
